According to EP1614683B1, “Indazole compounds and pharmaceutical compositions for inhibiting protein kinases, and methods for their use” (priority 1999, dated 2001):
Values joined by “and” are separate entries in the source; they are usually repeats but may differ in a detail not shown here. Equal entries are not always repeated. Where two headings read alike, the source gives them in different places.

What was measured:
[1] = system: VEGF dependent retinal vascular development; test: In vivo assay of retinal vascular development in neonatal rats; design: species or system rat; settings: Model P8, intravitreal, 5 mg/ml, vehicle PEG/water 50:50
Description: The development of the retinal vascular in rats occurs from postnatal day 1 to postnatal day 14 (P1-P14). […] To assess the ability of specific compounds to inhibit the activity of VEGF in vivo, compounds were formulated in an appropriate vehicle, usually 50% polyethylene glycol, average molecular weight 400 daltons, and 50% solution of 300 mM sucrose in deionized water. […] Six days after the intravitreal injection, the animals were sacrificed and the retinas dissected free from the remaining ocular tissue. […] The individual retinas are then flat-mount onto glass slides and examined to determine the extent of vascularization. […] The amount of vessel regression was used to assess the relative potency of the compounds after in vivo administration.
For more quantitative analysis of regression, images of ADPase-stained, flat-mounted retinas were captured with a digital camera attached to a dissecting microscope. Retinal images were then imported into an image analysis software (Image Pro Plus 4.0, Media Cybernetics, Silver Spring, MD). The software was employed to determine the percentage of the area of the retina that contained stained vessels. This value for the experimental eye was compared to that measured for the vehicle injected, contralateral eye from the same animal. The reduction in the vascular area seen in the eye that received compound as compared to the vehicle-injected eye was then expressed as the "percent regression" for that sample.

human FGF-R1 = human FGF-R1 (Homo sapiens, UniProt P11362, C488A/C584S/L457V); test: FGF-R spectrophotometric assay; assay type: biochemical; settings: Table 1; compound concentration 1 µM; read-out: FGF-P* (% inhibition)
Sequence of human FGF-R1 (P11362 456-766 L457V/C488A/C584S): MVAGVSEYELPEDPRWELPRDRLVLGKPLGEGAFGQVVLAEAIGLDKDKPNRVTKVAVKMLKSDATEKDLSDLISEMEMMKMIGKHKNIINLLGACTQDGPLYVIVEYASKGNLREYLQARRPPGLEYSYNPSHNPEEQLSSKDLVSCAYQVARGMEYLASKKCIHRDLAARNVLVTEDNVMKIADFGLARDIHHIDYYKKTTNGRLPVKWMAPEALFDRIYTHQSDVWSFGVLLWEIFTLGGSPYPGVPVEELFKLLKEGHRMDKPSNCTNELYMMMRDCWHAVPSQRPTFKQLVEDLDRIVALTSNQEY
Description: The spectrophotometric assay was carried out as described above for VEGF-R2, except for the following changes in concentration: FGF-R = 50 nM, ATP = 2 mM, and poly(E4Y1) =15 mM.

[2] = system: VEGF dependent retinal neovascularization; test: Neonatal rat model of retinopathy of prematurity; assay type: in vivo; settings: Model ROP
Description: A second model of VEGF dependent retinal neovascularization was employed to evaluate the activities of this series of compounds. […] The animals are exposed for 24 hours to a concentration of 50% oxygen followed by 24 hours at a concentration of 10% oxygen. This alternating cycle of hyperoxia followed by hypoxia is repeated 7 times after which the animals are removed to room air (P14). Compounds are administered via intravitreal injection upon removal to room air and the animals are sacrificed 6 days later (P20). The isolated retinas are then isolated, stained mounted and analyzed as detail above in the development model. The effectiveness was also graded as is described for the development model.

[3] = system: human umbilical vein endothelial cells (HUVEC); test: HUVEC proliferation assay (VEGF-stimulated, MTT); assay type: cell-based; settings: Homo sapiens, HUVEC, Table 1
LCK tyrosine kinase = LCK tyrosine kinase (Homo sapiens, UniProt P06239, C224D/P223M); test: LCK spectrophotometric assay; assay type: biochemical; settings: Table 1; compound concentration 1 µM; read-out: Lck-P* (% inhibition)
Sequence of LCK tyrosine kinase (P06239 223-509 P223M/C224D): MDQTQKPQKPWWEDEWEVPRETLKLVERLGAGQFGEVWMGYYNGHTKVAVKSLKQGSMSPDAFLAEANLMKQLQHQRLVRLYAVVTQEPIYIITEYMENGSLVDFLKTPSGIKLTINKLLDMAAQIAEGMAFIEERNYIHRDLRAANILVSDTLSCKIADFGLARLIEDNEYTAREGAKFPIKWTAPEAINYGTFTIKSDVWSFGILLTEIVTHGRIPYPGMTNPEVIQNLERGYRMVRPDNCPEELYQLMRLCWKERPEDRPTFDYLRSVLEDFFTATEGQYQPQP
Description: The spectrophotometric assay was carried out as described above for VEGF-R2, except for the following changes in concentration: LCK = 60 nM, MgCl2 = 0 mM, poly(E4Y1) = 20 mM.

in vitro = in vitro ADME, human; settings: 2 h
Procedure, shortened: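 HLM diluted to 5 mg/mL in 100 mM KPO4, preincubated 10 min at 37 °C with NADPH-regenerating system. Compound (5 µM final) incubated at 37 °C in triplicate, sampled at 0 and 2 h into ice-cold acetonitrile, then LC-MS analysis.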

[4] = target: T1, phosphorylated Tie-2 (aa 775-1122) (Homo sapiens, UniProt Q02763); test: TIE-2 spectrophotometric assay; assay type: biochemical; settings: read-out: % Inhibition @ 1 µM Tie2-P
T1 construct: 4 to 12 nM phosphorylated Tie-2 (aa 775-1122); made in house; host or cells: insect cells
T1 sequence (Q02763 775-1122): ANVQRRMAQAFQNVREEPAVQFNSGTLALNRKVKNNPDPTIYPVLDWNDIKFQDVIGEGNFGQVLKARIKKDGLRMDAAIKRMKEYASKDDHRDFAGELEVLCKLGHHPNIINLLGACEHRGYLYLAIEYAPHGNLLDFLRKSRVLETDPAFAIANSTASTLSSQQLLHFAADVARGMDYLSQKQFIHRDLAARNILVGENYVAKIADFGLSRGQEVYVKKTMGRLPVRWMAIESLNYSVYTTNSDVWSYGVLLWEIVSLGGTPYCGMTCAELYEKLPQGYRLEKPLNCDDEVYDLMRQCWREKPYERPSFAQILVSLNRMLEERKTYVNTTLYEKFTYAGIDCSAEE
Description: This construct also carries a R774M mutation, which serves as the initiating methionine residue in translation.
The kinase-catalyzed production of ADP from ATP that accompanies phosphoryl transfer to the random copolymer poly(Glu4 Tyr) was coupled to the oxidation of NADH through the activities of pyruvate kinase (PK) and lactate dehydrogenase (LDH). NADH conversion to NAD* was monitored by the decrease in absorbance at 340 nm (ε = 6.22 cm^-1mM^-1) using a Beckman DU650 spectrophotometer. Typical reaction solutions contained 1 mM phosphoenolpyruvate, 0.24 mM NADH, 40 mM MgCl2, 5 mM DTT, 2.9 mg/mL poly(Glu4Tyr), 0.5 mM ATP, 15 units/mL PK, 15 units/mL LDH in 100 mM HEPES, pH 7.5. […]

human CHK1 (FL-CHK1) = target: T2, human CHK1 (FL-CHK1) (Homo sapiens, UniProt O14757); test: CHK1 coupled spectrophotometric assay; assay type: biochemical; settings: Table 1; read-out: CHK -1* (Ki)
T2 construct: C-terminally His-tagged full-length human CHK1 (FL-CHK1) was expressed using the baculovirus/insect cell system; made in house; host or cells: baculovirus/insect cell system
T2 sequence (O14757 1-476): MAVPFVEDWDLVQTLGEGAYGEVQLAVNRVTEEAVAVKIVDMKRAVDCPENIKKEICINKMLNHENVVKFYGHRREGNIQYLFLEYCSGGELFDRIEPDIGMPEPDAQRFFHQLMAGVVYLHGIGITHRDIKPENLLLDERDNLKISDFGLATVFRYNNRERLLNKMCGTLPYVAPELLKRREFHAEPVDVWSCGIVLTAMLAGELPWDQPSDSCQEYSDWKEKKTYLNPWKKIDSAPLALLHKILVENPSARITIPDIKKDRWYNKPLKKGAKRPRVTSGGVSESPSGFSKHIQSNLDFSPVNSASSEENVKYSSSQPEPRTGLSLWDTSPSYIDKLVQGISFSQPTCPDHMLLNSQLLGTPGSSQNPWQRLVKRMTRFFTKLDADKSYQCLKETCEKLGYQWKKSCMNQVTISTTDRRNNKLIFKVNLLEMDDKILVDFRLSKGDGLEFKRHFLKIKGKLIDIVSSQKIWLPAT
Excerpt: CHK1 Construct for Assay: C-terminally His-tagged full-length human CHK1 (FL-CHK1) was expressed using the baculovirus/insect cell system. […] The protein was purified by conventional chromatographic techniques.
The production of ADP from ATP that accompanies phosphoryl transfer to the synthetic substrate peptide Syntide-2 ([…]) was coupled to oxidation of NADH using phosphoenolpyruvate (PEP) through the actions of pyruvate kinase (PK) and lactic dehydrogenase (LDH). The oxidation of NADH was monitored by following the decrease of absorbance at 340 nm (∈340 = 6.22 cm^-1 mM^-1) using a HP8452 spectrophotometer. […] Assays were initiated with 10 nM of FL-CHK1. Ki values were determined by measuring initial enzyme activity in the presence of varying concentrations of test compounds. The data were analyzed using Enzyme Kinetic and Kaleidagraph software.

in vivo = settings: mouse, plasma, pH 2.3
[5] = intravitreal, 1 mg/ml, vehicle PEG/water 70:30
[6] = intravitreal, 5 mg/ml, vehicle PEG/water 70:30
[7] = intravitreal, 10 mg/ml, vehicle PEG/water 70:30
[8] = + albumin, read-out: HUVEC + albumin IC50
[9] = Table 5, 1 µM, bold values spectrophotometric assay, non-bolded DELFIA assay (bold not visible here)
[10] = mouse, in vivo, ip, 25 mg/kg, pH 2.3
[11] = mouse, in vivo, po, 50 mg/kg, pH 2.3

In the case of `Cc1nc(/C=C/c2n[nH]c3cc(C(=O)c4cccc(NC(=O)c5ccccc5)c4)ccc23)cs1` [Example 42(c)], the “% Inhibition” value [1] is reported as 36%.

For `CC(=O)c1cccc(C(=O)Nc2cccc(N(C)c3ccc4c(/C=C/c5ccc6c(c5)OCO6)n[nH]c4c3)c2)c1` [16(e), 3-Acetyl-N-(3-{[3-(2-benzo[1,3]dioxol-5-yl-vinyl)-1H-indazol-6-yl]-methyl-amino}-phenyl)-benzamide], the inhibition at 1 µM (human FGF-R1) was 59%, the “% Inhibition” value [2, 5] was 16% and the “% Inhibition” value [2, 6] was 36% and 37%. For the same compound, the “Initial Evaluation” value [2, 6] was “++ (two pluses being judged to be approximately 25-75 % regression)”, the “% Inhibition” value [2, 7] was 54% and the “Initial Evaluation” value [2, 7] was “+++ (three pluses give to retinas with near total regression (approximately 75% or greater))”. The IC50 [3, 8] was 106 nM, the IC50 ([3]; read-out: HUVEC IC50) was 4.9 nM and the inhibition at 1 µM (LCK tyrosine kinase) was 8%. The remaining at 2 h, 5 µM (in vitro; human liver microsomes, 5 µM test compound, 37 °C, read-out: % remain (HLM, 2 h)) was 40%.

Work on `Brc1cccc(Oc2ccc3c(/C=C/c4ccccc4)n[nH]c3c2)c1` [8(d), 6-(3-Bromo-phenoxy)-3-styryl-1H-indaxole] yielded an inhibition at 1 µM [4] of 10% and a Ki (human CHK1 (FL-CHK1)) of 82 nM.

In the case of `CCn1nc(C)cc1C(=O)Nc1cccc(C(=O)c2ccc3c(/C=C/c4ccccn4)n[nH]c3c2)c1.Cl` [Example 59(a), 6-[3-((1-Ethyl-3-methyl-1H-pyrazol-5-yl)carboxamido)benzoyl]-3-E-[2-(pyridin-2-yl)ethenyl]-1H-indazole hydrochloride], the T1/2 (mouse, in vivo, po, 25 mg/kg) is reported as 1.6 h, the “% Inhibition” value ([2]; 1 mg/ml, vehicle 0.5%CMC) is reported as 19% and the “% Inhibition” value ([2]; 10 mg/ml, vehicle C.5%CMC) is reported as 41%.

For `Cc1cc(C(=O)Nc2cc(Nc3ccc4c(/C=C/c5ccccn5)n[nH]c4c3)ccc2F)n(C)n1` [Example 49(a), 6-[N-(3-((1,3-Dimethyl-1H-pyrazol-5-yl)carboxamido)-4-fluorophenyl)amino]-3-E-[2-(pyridin-2-yl)ethenyl]-1H-indazole], the “% Inhibition” value [1] was 54%.

With `O=C(Nc1cccc(C(=O)c2ccc3c(/C=N/n4cccc4)n[nH]c3c2)c1)c1ccccc1` [Example 45(b), 6-(3-Benzamidobenzoyl)-3-E-[N-(pyrrol-1-yl)iminomethyl]-1H-indazole] the “% Inhibition” value [2, 5] was 25%, the “% Inhibition” value [2, 7] was 60% and the “Initial Evaluation” value [2, 7] was “++ (two pluses being judged to be approximately 25-75 % regression)”. For the same compound, the “% remain (HLM, 2 h)” value (in vitro; human, microsomes, 5 µM) was 97%.

With `C=CCONC(=O)c1ccccc1Sc1ccc2c(/C=C/c3ccccn3)n[nH]c2c1` [Reference Example 35(j), 6-[2-(Allyloxycarbamoyl)phenylsulfanyl]-3-E-[2-(pyridin-2-yl)ethenyl]-1H-indazole] the “% Inhibition” value [1] was 7%.

With `CC(=O)Nc1cccc(C(=O)c2ccc3c(/C=C/c4ccccc4)n[nH]c3c2)c1` [19(a), N-[3-(3-Styryl-1H-indazole-6-carbonyl)-phenyl]-acetamide] the inhibition at 1 µM (human FGF-R1) was 92%, the IC50 ([3]; read-out: HUVEC IC50) was 44 nM and the inhibition at 1 µM [4, 9] was 18%. It also gave an inhibition at 1 µM (LCK tyrosine kinase) of 16%.

For `O=C(c1cccc(NC(=O)c2cccc3[nH]ccc23)c1)c1ccc2c(/C=C/c3ccccn3)n[nH]c2c1` [Reference Example 41(d), 6-[3-(indol-4-ylcarboxamido)benzoyl]-3-E-[2-(pyridin-2-yl)ethenyl]-1H-indazole], the “% Inhibition” value [2, 7] was 59%, the “Initial Evaluation” value [2, 7] was “+++ (three pluses give to retinas with near total regression (approximately 75% or greater))” and the IC50 [3, 8] was 6.4 nM. It also gave an IC50 ([3]; read-out: HUVEC IC50) of 0.9 nM.

`O=C(c1cccc(NC(=O)c2cccc3[nH]ccc23)c1)c1ccc2c(/C=C/c3ccccn3)n[nH]c2c1` [41 (d)] showed an AUCleast [10] of 10324 ng·h/mL, a T1/2 [10] of 2.8 h and an AUCleast [11] of 7072 ng·h/mL. For the same compound, the T1/2 [11] was 1.5 h and the “% Inhibition” value [2, 5] was 0%.

`Cc1ccc2cc(NC(=O)c3ccccc3Sc3ccc4c(/C=C/c5ccccn5)n[nH]c4c3)ccc2n1` [Reference Example 33(b)] gave a T1/2 (IP, 25 mg/kg, vehicle PEG400:H2O pH 2.3 60:40) of 3.0 h, a T1/2 (PO, 50 mg/kg, vehicle PEG400:H2O pH 2.3 60:40) of 3.0 h and an inhibition at 1 µM (human FGF-R1) of 77%. The “Initial Evaluation” value [2, 7] was “++ (two pluses being judged to be approximately 25-75 % regression)”, the AUC (in vivo; ip, 25 mg/kg) was 11200 ng·h/mL and the AUC (in vivo; po, 50 mg/kg) was 3920 ng·h/mL.

In the case of `Cc1ccc2cc(NC(=O)c3ccccc3Sc3ccc4c(/C=C/c5ccccc5)n[nH]c4c3)ccc2n1` [Reference Example 38(a), 6-[2-(2-Methylquinol-6-ylcarbamoyl)phenylsulfanyl]-3-E-(2-styryl)-1H-indazole], the inhibition at 1 µM (human FGF-R1) is reported as 74%, the “Initial Evaluation” value [2, 5] is reported as “+ (one plus being detectable regression judged to be approximately 25 percent or less)” and the “Initial Evaluation” value [2, 7] is reported as “+++ (three pluses give to retinas with near total regression (approximately 75% or greater))”. It also gave an inhibition at 1 µM (LCK tyrosine kinase) of 77%.

With `Cc1cccc(C(=O)Nc2cccc(N(C)c3ccc4c(/C=C/c5ccc6c(c5)OCO6)n[nH]c4c3)c2)c1` [16(b), N-(3-{[3-(2-Benzo[1,3]dioxol-5-yl-vinyl)-1H-indazol-6-yl]-methyl-amino}-phenyl)-3-methyl-benzamide] the inhibition at 1 µM (human FGF-R1) was 73%, the IC50 [3, 8] was 140 nM and the IC50 ([3]; read-out: HUVEC IC50) was 4.7 nM. The inhibition at 1 µM [4, 9] was 52% and the inhibition at 1 µM (LCK tyrosine kinase) was 22%.
